Results as given in patent US11208400B2, “Substituted 6-(1H-pyrazol-1-yl)pyrimidin-4-amine derivatives and uses thereof” (Bayer Aktiengesellschaft, priority 2016, dated 2021).

Molecular target: T1, human Npt2a (Homo sapiens, UniProt Q06495)
T1 construct: expressed in transfected cells
T1 sequence (Q06495 1-639): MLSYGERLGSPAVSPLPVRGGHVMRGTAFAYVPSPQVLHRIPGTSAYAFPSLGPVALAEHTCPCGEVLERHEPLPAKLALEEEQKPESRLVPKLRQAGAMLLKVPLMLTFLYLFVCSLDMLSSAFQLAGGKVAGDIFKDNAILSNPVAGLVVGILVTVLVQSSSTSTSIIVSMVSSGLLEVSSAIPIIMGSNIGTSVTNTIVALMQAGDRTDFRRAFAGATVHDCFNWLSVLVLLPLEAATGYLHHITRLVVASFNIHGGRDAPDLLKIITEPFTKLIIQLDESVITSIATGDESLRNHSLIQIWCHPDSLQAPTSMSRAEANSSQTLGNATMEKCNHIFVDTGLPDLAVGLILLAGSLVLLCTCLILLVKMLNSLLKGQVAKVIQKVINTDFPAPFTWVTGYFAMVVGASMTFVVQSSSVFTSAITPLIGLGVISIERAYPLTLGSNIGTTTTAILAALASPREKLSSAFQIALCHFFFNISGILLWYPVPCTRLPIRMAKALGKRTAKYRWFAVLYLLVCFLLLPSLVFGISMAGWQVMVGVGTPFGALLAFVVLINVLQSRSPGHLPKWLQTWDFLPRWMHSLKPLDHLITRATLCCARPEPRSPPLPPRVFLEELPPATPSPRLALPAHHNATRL
Assay: Npt2a activity cell based assay, membrane potential dye, CHO T-REx hNpt2a cells
Details: doxycycline-induced, depolarization by sodium phosphate influx, average or median values if tested more than once
In short: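 Doxycycline-induced (0.5 μg/mL, 24 h) CHO T-REx cells were loaded with membrane potential dye in sodium-free NHE buffer (pH 7.4) and exposed to compound (50 μM–1 nM, 5 min, room temperature).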

| SMILES | IC50 |
| --- | --- |
| Cc1cc(C)n(-c2cc(Nc3[nH]nc(-c4ccc(F)cc4)c3Cl)ncn2)n1 [Example 14, N-[4-chloro-3-(4-fluorophenyl)-1H-pyrazol-5-yl]-6-(3,5-dimethyl-1H-pyrazol-1-yl)pyrimidin-4-amine] | 70 nM |
| CCOC(=O)c1c(C)nn(-c2cc(Nc3[nH]nc(-c4ccc(F)cc4)c3C3CC3)ncn2)c1C [Example 15, ethyl 1-(6-{[4-cyclopropyl-3-(4-fluorophenyl)-1H-pyrazol-5-yl]amino}pyrimidin-4-yl)-3,5-dimethyl-1H-pyrazole-4-carboxylate] | 72 nM |
| CCOC(=O)c1c(C)nn(-c2cc(Nc3n[nH]c(-c4ccccc4)c3C)ncn2)c1C [Example 16, ethyl 3,5-dimethyl-1-{6-[(4-methyl-5-phenyl-1H-pyrazol-3-yl)amino]pyrimidin-4-yl}-1H-pyrazole-4-carboxylate] | 81 nM |
| Cc1cc(C)n(-c2cc(Nc3n[nH]c(-c4ccc(F)cc4)c3C)ncn2)n1 [Example 17, 6-(3,5-dimethyl-1H-pyrazol-1-yl)-N-[5-(4-fluorophenyl)-4-methyl-1H-pyrazol-3-yl]pyrimidin-4-amine] | 100 nM |
| CCc1c(Nc2cc(-n3cc4c(n3)CCCC4)ncn2)n[nH]c1-c1ccc(F)cc1 [Example 18, N-[4-ethyl-5-(4-fluorophenyl)-1H-pyrazol-3-yl]-6-(4,5,6,7-tetrahydro-2H-indazol-2-yl)pyrimidin-4-amine] | 110 nM |
| CCc1c(Nc2cc(-n3nc(C)c4ccccc43)ncn2)n[nH]c1-c1ccc(F)cc1 [Example 19, N-[4-ethyl-5-(4-fluorophenyl)-1H-pyrazol-3-yl]-6-(3-methyl-1H-indazol-1-yl)pyrimidin-4-amine] | 110 nM |
| CCc1c(Nc2cc(-n3cc4c(n3)CCC4)ncn2)n[nH]c1-c1ccc(F)cc1 [Example 20, 6-(5,6-dihydrocyclopenta[c]pyrazol-2(4H)-yl)-N-[4-ethyl-5-(4-fluorophenyl)-1H-pyrazol-3-yl]pyrimidin-4-amine] | 120 nM |
| CCc1c(Nc2cc(-n3nc(C)cc3C)ncn2)n[nH]c1-c1ccc(Cl)cc1 [Example 21, N-[5-(4-chlorophenyl)-4-ethyl-1H-pyrazol-3-yl]-6-(3,5-dimethyl-1H-pyrazol-1-yl)pyrimidin-4-amine] | 140 nM |
| CCc1c(Nc2cc(-n3ncc4c3CCCC4)ncn2)n[nH]c1-c1ccc(F)cc1 [Example 22, N-[4-ethyl-5-(4-fluorophenyl)-1H-pyrazol-3-yl]-6-(4,5,6,7-tetrahydro-1H-indazol-1-yl)pyrimidin-4-amine] | 150 nM |
| Cc1cc(C)n(-c2cc(Nc3nn(C)c(-c4ccc(F)cc4)c3C#N)ncn2)n1 [Example 23, 3-{[6-(3,5-dimethyl-1H-pyrazol-1-yl)pyrimidin-4-yl]amino}-5-(4-fluorophenyl)-1-methyl-1H-pyrazole-4-carbonitrile] | 315 nM |
| Cc1cc(C)n(-c2cc(Nc3c(C#N)c(-c4ccc(F)cc4)nn3C)ncn2)n1 [Example 24, 5-{[6-(3,5-dimethyl-1H-pyrazol-1-yl)pyrimidin-4-yl]amino}-3-(4-fluorophenyl)-1-methyl-1H-pyrazole-4-carbonitrile] | 310 nM |
| CCc1c(Nc2cc(-n3nc(C)c(C)c3O)ncn2)nn(C)c1-c1ccc(F)cc1 [Example 25, 1-(6-{[4-ethyl-5-(4-fluorophenyl)-1-methyl-1H-pyrazol-3-yl]amino}pyrimidin-4-yl)-3,4-dimethyl-1H-pyrazol-5-ol] | 1070 nM |
| CCc1c(Nc2cc(-n3cc4c(n3)CN(C(=O)OC(C)(C)C)CC4)ncn2)n[nH]c1-c1ccc(F)cc1 [Example 26, tert-butyl 2-(6-{[4-ethyl-5-(4-fluorophenyl)-1H-pyrazol-3-yl]amino}pyrimidin-4-yl)-2,4,5,7-tetrahydro-6H-pyrazolo[3,4-c]pyridine-6-carboxylate] | 460 nM |
| CCc1c(Nc2cc(-n3ncc4c3CCC4)ncn2)n[nH]c1-c1ccc(F)cc1 [Example 27, 6-(5,6-dihydrocyclopenta[c]pyrazol-1 (4H)-yl)-N-[4-ethyl-5-(4-fluorophenyl)-1H-pyrazol-3-yl]pyrimidin-4-amine] | 460 nM |
| CCc1c(Nc2cc(-n3nc(C)cc3C)ncn2)n[nH]c1C1CCCCC1 [Example 28, N-(5-cyclohexyl-4-ethyl-1H-pyrazol-3-yl)-6-(3,5-dimethyl-1H-pyrazol-1-yl)pyrimidin-4-amine] | 490 nM |
| CCc1c(Nc2cc(-n3nc4c(c3O)CCCC4)ncn2)nn(C)c1-c1ccc(F)cc1 [Example 29, 2-(6-{[4-ethyl-5-(4-fluorophenyl)-1-methyl-1H-pyrazol-3-yl]amino}pyrimidin-4-yl)-4,5,6,7-tetrahydro-2H-indazol-3-ol] | 1420 nM |
| CCc1c(Nc2cc(-n3nc4c(c3O)CCCC4)ncn2)n[nH]c1-c1ccc(F)cc1 [Example 30, 2-(6-{[4-ethyl-5-(4-fluorophenyl)-1H-pyrazol-3-yl]amino}pyrimidin-4-yl)-4,5,6,7-tetrahydro-2H-indazol-3-ol] | 620 nM |
| CCc1c(Nc2cc(-n3nc(C)cc3C)ncn2)nn(CCOCc2ccccc2)c1-c1ccc(F)cc1 [Example 31, N-{1-[2-(benzyloxy)ethyl]-4-ethyl-5-(4-fluorophenyl)-1H-pyrazol-3-yl}-6-(3,5-dimethyl-1H-pyrazol-1-yl)pyrimidin-4-amine] | 670 nM |
| CCc1c(-c2ccc(F)cc2)nn(CCOCc2ccccc2)c1Nc1cc(-n2nc(C)cc2C)ncn1 [Example 32, N-{1-[2-(benzyloxy)ethyl]-4-ethyl-3-(4-fluorophenyl)-1H-pyrazol-5-yl}-6-(3,5-dimethyl-1H-pyrazol-1-yl)pyrimidin-4-amine] | 690 nM |
| CCc1c(Nc2cc(-n3ncc4c3CCN(C(=O)OC(C)(C)C)C4)ncn2)n[nH]c1-c1ccc(F)cc1 [Example 33, tert-butyl 1-(6-{[4-ethyl-5-(4-fluorophenyl)-1H-pyrazol-3-yl]amino}pyrimidin-4-yl)-1,4,6,7-tetrahydro-5H-pyrazolo[4,3-c]pyridine-5-carboxylate] | 1000 nM |
| CCc1c(Nc2cc(-n3nc(C)c(C)c3O)ncn2)n[nH]c1-c1ccc(F)cc1 [Example 34, 1-(6-{[4-ethyl-5-(4-fluorophenyl)-1H-pyrazol-3-yl]amino}pyrimidin-4-yl)-3,4-dimethyl-1H-pyrazol-5-ol] | 1000 nM |
| CCc1nn(C)c(Nc2cc(-n3nc(C)cc3C)ncn2)c1-c1ccc(F)cc1 [Example 35, 6-(3,5-dimethyl-1H-pyrazol-1-yl)-N-[3-ethyl-4-(4-fluorophenyl)-1-methyl-1H-pyrazol-5-yl]pyrimidin-4-amine] | 1400 nM |
| Cc1cc(C)n(-c2cc(Nc3[nH]nc(-c4ccc(F)cc4)c3CC(F)(F)F)ncn2)n1 [Example 36, 6-(3,5-dimethyl-1H-pyrazol-1-yl)-N-[3-(4-fluorophenyl)-4-(2,2,2-trifluoroethyl)-1H-pyrazol-5-yl]pyrimidin-4-amine] | 1700 nM |
| CCc1c(Nc2cc(-n3ncc4c3CN(C(=O)OC(C)(C)C)C4)ncn2)n[nH]c1-c1ccc(F)cc1 [Example 37, tert-butyl 1-(6-{[4-ethyl-5-(4-fluorophenyl)-1H-pyrazol-3-yl]amino}pyrimidin-4-yl)-4,6-dihydropyrrolo[3,4-c]pyrazole-5(1H)-carboxylate] | 1700 nM |
| COCCc1c(Nc2cc(-n3nc(C)cc3C)ncn2)n[nH]c1-c1ccc(F)cc1 [Example 38, 6-(3,5-dimethyl-1H-pyrazol-1-yl)-N-[5-(4-fluorophenyl)-4-(2-methoxyethyl)-1H-pyrazol-3-yl]pyrimidin-4-amine] | 2350 nM |
| CCOc1ccc(-c2n[nH]c(Nc3cc(-n4nc(C)cc4C)ncn3)c2Cl)cc1 [Example 39, N-[4-chloro-3-(4-ethoxyphenyl)-1H-pyrazol-5-yl]-6-(3,5-dimethyl-1H-pyrazol-1-yl)pyrimidin-4-amine] | 3.2 nM |
| CCOC(=O)c1c(C)nn(-c2cc(Nc3nn(C)c(-c4ccc(F)cc4)c3CC)ncn2)c1C [Example 40, ethyl 1-(6-{[4-ethyl-5-(4-fluorophenyl)-1-methyl-1H-pyrazol-3-yl]amino}pyrimidin-4-yl)-3,5-dimethyl-1H-pyrazole-4-carboxylate] | 2760 nM |
| Cc1cc(C)n(-c2cc(Nc3nn(C)c(-c4ccc(F)cc4)c3C3CC3)ncn2)n1 [Example 41, N-[4-cyclopropyl-5-(4-fluorophenyl)-1-methyl-1H-pyrazol-3-yl]-6-(3,5-dimethyl-1H-pyrazol-1-yl)pyrimidin-4-amine] | 11 nM |
| Cc1nn(-c2cc(Nc3nn(C)c(-c4ccc(F)cc4)c3C3CC3)ncn2)c(C)c1Cl [Example 42, 6-(4-chloro-3,5-dimethyl-1H-pyrazol-1-yl)-N-[4-cyclopropyl-5-(4-fluorophenyl)-1-methyl-1H-pyrazol-3-yl]pyrimidin-4-amine] | 7.67 nM |
| Cc1cc(C)n(-c2cc(Nc3c(C4CC4)c(-c4ccc(F)cc4)nn3C)ncn2)n1 [Example 43, N-[4-cyclopropyl-3-(4-fluorophenyl)-1-methyl-1H-pyrazol-5-yl]-6-(3,5-dimethyl-1H-pyrazol-1-yl)pyrimidin-4-amine] | 144 nM |
